Several values for one entry are separate records, joined by “and”; a condition that tells them apart may be missing. Equal values may be shown once. Entries after “also recorded” stand apart in the source; their conditions may differ. Marks after values point to notes of the source that are not given here.
Columns and labels:
[1] = test system: ventricular disturbances of heart rhythm; assay: arrhythmia in concious dogs according to Harris; assay type: in vivo; details: for % of the ectopic contractions / heart rate: concious dogs according to Harris, compound XX 1.0 mg/kg i.v., individual dogs; for antiarrhythmic effect, in words: concious dogs with ventricular disturbances of heart rhythm; for antiarrhythmic effect, in words / effect on heart rate, in words / tolerability / side effects, in words: i.v.; for effect on heart rate, in words / tolerability / side effects, in words / % ectopic contractions, change vs basal level / Heart rate, change vs basal level: concious dogs; for % ectopic contractions, change vs basal level / Heart rate, change vs basal level: 2 mg/kg i.v.
Protocol: The arrhythmia in concious dogs according to Harris. The experiments were conducted in mongrel dogs of either sex weighing 9-14 kg. Under anesthesia (40 mg/kg of nembutal i.v.) and artificial respiration the two-step occlusion of the left anterior descending coronary artery was performed. The constant ECG disturbances of the heart rhythm were recorded after 24 hours. […] T-Student' test was used for statistical calculation.

aconitine arrhythmia = assay: animal or person; assay type: in vivo, rats; details: for ED50: Rattus norvegicus, iv, read-out: Aconitine arrhythmia ED50
Protocol: Aconitine arrhythmia. The aconitine arrhythmia was induced in concious rats weighing 180-200 g by the injection in tail vein of the aconitine sulfate solution at dose range of […]. […] The tested compounds were administered i.v. 3 min prior aconitine injection. The ED50 value was calculated according to Litchfield's method.

[2] = test system: ischemized myocardium of cats; assay: contractile and pump functions and ATP level of ischemized myocardium (20-40 min occlusion, reperfusion); assay type: in vivo
Protocol: The effects of this compound on contractile and pump functions of ischemized myocardium were studied in cats weighing 3,0-4,5 kg under anesthesia with nembutal (40 mg/kg). […] The phase curve of blood flow in ascending part of the aortic arch was recorded with electromagnetic blood flowmeter MFV-1200 (“Nihon-Kohden”, Japan). Hemodynamics, heart activity values and the number of arrhythmia were calculated. In the experiments with 40 min ischemia immediately after 60 min the intact and ischemized zones of left ventricle were dissected and freezed in liquid nitrogen. ATP level was measured using hexokinase method in these zones. 4 series of experiments (2-control and 2-basic) were conducted in 12 cats in each. For statistical calculation the t-Student and Fisher's precision test were used.

[3] = test system: ischemized myocardium of cats; assay: ST-segment elevation during 5 min occlusions of coronary artery (acute coronary deficiency); assay type: in vivo; details: for change in mean elevation of ST-segment vs control occlusion: cats, 1.0 mg/kg i.v.
Protocol: These experiments were conducted in cats weighing 2,5-4,0 kg under anasthesia by i.v. injection of nembutal (40 mg/kg) in open chest conditions. Epicardium electrogram in 3-4 leads was registered in “Mingograph-81”. The value of mean elevation of ST-segment during 5 min occlusions of anterior left descending coronary artery with 15 min reperfusions between them was the main index of intensity of reversible ischemized damage of myocardium.
The statistical calculation was carried out with non-parametric Wilcocson method for associated variants.

in vivo = details: rat, iv
[4] = 10 min after compound injection
[5] = 15 min after compound injection
[6] = 20 min after compound injection
[7] = 30 min after compound injection
[8] = 40 min after compound injection
[9] = 50 min after compound injection
[10] = 40 min occlusion, 60 min reperfusion

**Q.** For `CN(C)CCSc1nc2ccccc2n1CCc1ccccc1` [Compound XX, 1-(β-Phenylethyl)-2-[2-(dimethylamino)ethylthio]-benzimidazole], which “% of the ectopic contractions” value ([1]; 3 min after compound injection) is on record?
**A.** The value was 64% and 30% and 72% and 80%.

**Q.** What about the heart rate ([1]; 3 min after compound injection) of the same compound?
**A.** The heart rate was 93 beats/min and 172 beats/min and 145 beats/min and 103 beats/min.

**Q.** And the “% of the ectopic contractions” value ([1]; 5 min after compound injection)?
**A.** The value was 52% and 20% and 63% and 82%.

**Q.** What about the heart rate ([1]; 5 min after compound injection) of the same compound?
**A.** The heart rate was 89 beats/min and 167 beats/min and 138 beats/min and 98 beats/min.

**Q.** What about the “% of the ectopic contractions” value [1, 4] of the same compound?
**A.** The value was 50% and 18% and 60% and 81%.

**Q.** And the heart rate [1, 4]?
**A.** The heart rate was 102 beats/min and 163 beats/min and 129 beats/min and 75 beats/min.

**Q.** What about the “% of the ectopic contractions” value [1, 5] of the same compound?
**A.** The value was 51% and 0% and 58% and 91%.

**Q.** And the heart rate [1, 5]?
**A.** Its heart rate is 88 beats/min and 159 beats/min and 125 beats/min and 100 beats/min.

**Q.** And the “% of the ectopic contractions” value [1, 6]?
**A.** Its value is 56% and 0% and 66% and 92%.

**Q.** What about the heart rate [1, 6] of the same compound?
**A.** The heart rate was 74 beats/min and 155 beats/min and 132 beats/min and 78 beats/min.

**Q.** And the “% of the ectopic contractions” value [1, 7]?
**A.** The value was 62% and 10% and 74% and 91%.

**Q.** And the heart rate [1, 7]?
**A.** Its heart rate is 94 beats/min and 168 beats/min and 135 beats/min and 117 beats/min.

**Q.** And the “% of the ectopic contractions” value [1, 8]?
**A.** The value was 66% and 8% and 79% and 97%.

**Q.** And the heart rate [1, 8]?
**A.** The heart rate was 105 beats/min and 185 beats/min and 148 beats/min and 106 beats/min.

**Q.** What about the “% of the ectopic contractions” value [1, 9] of the same compound?
**A.** Its value is 63% and 10% and 81% and 94%.

**Q.** And the heart rate [1, 9]?
**A.** Its heart rate is 128 beats/min and 198 beats/min and 159 beats/min and 109 beats/min.

**Q.** What about the “antiarrhythmic effect, in words” value [1] of the same compound?
**A.** Its value is “pronounced antiarrhythmic effect”.

**Q.** And the “effect on heart rate, in words” value [1]?
**A.** The value was “pronounced bradycardia”.

**Q.** And the “tolerability / side effects, in words” value [1]?
**A.** The value was “well tolerated by the animals; also recorded: no side effects”.

**Q.** And the ED50 (aconitine arrhythmia)?
**A.** Its ED50 is under 0.5 mg/kg.

**Q.** Which results are given for `CCOc1ccc2nc(SCCN(CC)CC)[nH]c2c1` [Compound IX, 2-[2-(Diethylamino)ethylthio]-5-ethoxybenz-imidazole]?
**A.** effect on number of arrhythmias during occlusion and reperfusion, in words ([2]; 20 min occlusion, 30 min reperfusion): decreased the number of arrhythmias; effect on cardiac output, in words ([2]; 20 min occlusion, 30 min reperfusion, 1,0 mg/kg bolus +50 mcg/kg/min i.v.): prevented the decrease in cardiac output; effect on inhibition of contractile function of myocardium induced by ischemic damage, in words ([2]; 20 min occlusion, 30 min reperfusion, 1,0 mg/kg bolus +50 mcg/kg/min i.v. during 30 min): significantly prevents the inhibition of contractile function of myocardium; effect on ATP level in intact zones of myocardium, in words [2, 10]: did not change it in the intact zones; effect on cardiac output, in words [2, 10]: no effect on changes in cardiac output; effect on stroke volume, in words [2, 10]: prevented the decrease in stroke volume; effect on ATP level in ischemized myocardium, in words ([2]; 40 min occlusion, 60 min reperfusion, hexokinase method): increased the ATP level in the ischemized myocardium; effect on number of arrhythmias induced by occlusion and reperfusion, in words ([2]; critical and mild ischemia): did not reduced the number of arrhythmias; effect on inhibition of contractile function of heart, in words ([2]; critical ischemia: 40 min occlusion, 60 min reperfusion): prevented the inhibition of contractile function of heart; antiarrhythmic effect, in words [1]: pronounced antiarrhythmic effect; % ectopic contractions, change vs basal level ([1]; after 3 min): −44.8 ± 15.0 %; Heart rate, change vs basal level ([1]; after 3 min): +3.2 ± 8.4 beats/min; % ectopic contractions, change vs basal level ([1]; after 5 min): −43.8 ± 13.3 %; Heart rate, change vs basal level ([1]; after 5 min): −5.2 ± 9.2 beats/min; % ectopic contractions, change vs basal level ([1]; after 10 min): −59.4 ± 7.8 %; Heart rate, change vs basal level ([1]; after 10 min): −14.6 ± 12.0 beats/min; % ectopic contractions, change vs basal level ([1]; after 20 min): −41.4 ± 8.1 %; Heart rate, change vs basal level ([1]; after 20 min): −16.4 ± 6.6 & beats/min; % ectopic contractions, change vs basal level ([1]; after 30 min): −24.8 ± 5.8 %; Heart rate, change vs basal level ([1]; after 30 min): −5.6 ± 2.1 & beats/min; % ectopic contractions, change vs basal level ([1]; after 60 min): −17.2 ± 9.1%; Heart rate, change vs basal level ([1]; after 60 min): −5.2 ± 4.1 & beats/min; duration of antiarrhythmic effect ([1]; concious dogs, 2,0 mg/kg i.v.): 50 min; effect on heart rate, in words [1]: gradual bradycardia; tolerability / side effects, in words [1]: no side effects; change in mean elevation of ST-segment vs control occlusion ([3]; occlusion 20 min after injection, 15 sec of reperfusion): −0.8* mv; change in mean elevation of ST-segment vs control occlusion ([3]; occlusion 20 min after injection, 30 sec of occlusion): −0.7 mv; change in mean elevation of ST-segment vs control occlusion ([3]; occlusion 20 min after injection, 2 min of occlusion): −1.4* mv; change in mean elevation of ST-segment vs control occlusion ([3]; occlusion 20 min after injection, 3 min of occlusion): −1.4* mv; change in mean elevation of ST-segment vs control occlusion ([3]; occlusion 20 min after injection, 5 min of occlusion): −1.2 mv; change in mean elevation of ST-segment vs control occlusion ([3]; occlusion 40 min after injection, 15 sec of reperfusion): −1.0* mv; change in mean elevation of ST-segment vs control occlusion ([3]; occlusion 40 min after injection, 30 sec of occlusion): −0.5 mv; change in mean elevation of ST-segment vs control occlusion ([3]; occlusion 40 min after injection, 1 min of occlusion): −0.5* mv; change in mean elevation of ST-segment vs control occlusion ([3]; occlusion 40 min after injection, 2 min of occlusion): −1.0* mv; change in mean elevation of ST-segment vs control occlusion ([3]; occlusion 40 min after injection, 3 min of occlusion): −1.2 mv; change in mean elevation of ST-segment vs control occlusion ([3]; occlusion 40 min after injection, 5 min of occlusion): −1.0 mv; change in mean elevation of ST-segment vs control occlusion ([3]; occlusion immediately after injection, 15 sec of reperfusion): −1.2* mv; change in mean elevation of ST-segment vs control occlusion ([3]; occlusion immediately after injection, 30 sec of occlusion): −1.8** mv; change in mean elevation of ST-segment vs control occlusion ([3]; occlusion immediately after injection, 1 min of occlusion): −1.9** mv; change in mean elevation of ST-segment vs control occlusion ([3]; occlusion immediately after injection, 2 min of occlusion): −2.4** mv; change in mean elevation of ST-segment vs control occlusion ([3]; occlusion immediately after injection, 3 min of occlusion): −1.9** mv; change in mean elevation of ST-segment vs control occlusion ([3]; occlusion immediately after injection, 5 min of occlusion): −2.2** mv; duration of anti-ischemic effect after injection ([3]; cats, 1,0 mg/kg i.v.): 40 min; effect on mean elevation of ST-segment during 5 min occlusion, in words ([3]; cats, 1,0 mg/kg i.v.): decreased the mean elevation of ST-segment; LD50/ED50 (antiarrhythmic index) (aconitine arrhythmia; LD50 i.v. / ED50 aconitine arrhythmia): 26,2; ED50 (aconitine arrhythmia): 1.2 mg/kg; activity relative to lidocaine, aconitine arrhythmia (aconitine arrhythmia; rats, higher than lidocaine): 6,5 folds; activity relative to quinidine, aconitine arrhythmia (aconitine arrhythmia; rats, higher than quinidine): 4,4 folds; LD50 (in vivo): 31.5 mg/kg
